This is an account of results in ChEMBL document CHEMBL4145553, “Design, synthesis, and biological evaluation of novel amide and hydrazide based thioether analogs targeting Histone deacteylase (HDAC) enzymes” (Eur J Med Chem, 2018).

Holding throughout (type): functional
The subject of one assay is COLO 205. Kind of assay: Growth inhibition of human COLO205 cells assessed as cell growth at 10^-5 M incubated for 48 hrs by sulforhodamine B assay relative to control. The conditions noted are these: COLO 205, 48 h, read-out: Activity.
In a further assay the test system is NCI-H522. Kind of assay: Growth inhibition of human NCI-H522 cells assessed as cell growth at 10^-4 M incubated for 48 hrs by sulforhodamine B assay relative to control. The following applies: NCI-H522, 48 h, read-out: Activity.
In the next assay the test system is Hs-578T. Kind of assay: Growth inhibition of human Hs 578T cells assessed as cell growth at 10^-4 M incubated for 48 hrs by sulforhodamine B assay relative to control. The conditions noted are these: read-out: Activity.
The test system of the next assay is M14. Kind of assay: Growth inhibition of human M14 cells assessed as cell growth at 10^-4 M incubated for 48 hrs by sulforhodamine B assay relative to control. The following applies: M14, 48 h, read-out: Activity.

For the molecule `CCS/C(Nc1ccccc1)=C(\C#N)C(=O)Nc1ccc(OC)cc1`, in the assay on COLO 205, the growth at 10 µM was 1%. Besides, the growth at 100 µM was -11% in the assay with NCI-H522 and 16% in the assay on Hs-578T.
`CCS/C(Nc1ccccc1)=C(\C#N)C(=O)N/N=C\c1ccc(Cl)cc1Cl`: the growth at 100 µM in the assay on M14 was -3%.
